Laboratory results reported in patent US10123993B2, “Cyclic ureas as inhibitors of rock” (BRISTOL-MYERS SQUIBB COMPANY, priority 2015, dated 2018).

These compounds were tested against ROCK2 (Homo sapiens, UniProt O75116) (assay: ROCK2 kinase inhibition assay (Caliper LABCHIP, FITC peptide substrate)). Details: 5 μM ATP, 1.5 μM peptide substrate; value ranges.
Format: biochemical
Procedure: The effectiveness of compounds of the present invention as ROCK inhibitors can be determined in a 30 μL assay containing 20 mM HEPES, pH 7.5, 20 mM MgCl2, 0.015% Brij-35, 4 mM DTT, 5 μM ATP and 1.5 μM peptide substrate (FITC-AHA-AKRRRLSSLRA-OH). Compounds were dissolved in DMSO so that the final concentration of DMSO was <2%, and the reaction was initiated with Rho kinase variants. After incubation, the reaction was terminated by the addition of EDTA and the phosphorylated and non-phosphorylated peptides separated using a LABCHIP® 3000 Reader (Caliper Life Sciences). […] Compounds were tested in dose-response format, and the inhibition of kinase activity was calculated at each concentration of compound. The inhibition data were fit using a curve-fitting program to determine the IC50; i.e., the concentration of compound required to inhibit 50% of kinase activity.
Representative Examples were tested in the ROCK2 assay described above and found having ROCK inhibitory activity.

Chain of ROCK2 (O75116 whole entry, species assumed): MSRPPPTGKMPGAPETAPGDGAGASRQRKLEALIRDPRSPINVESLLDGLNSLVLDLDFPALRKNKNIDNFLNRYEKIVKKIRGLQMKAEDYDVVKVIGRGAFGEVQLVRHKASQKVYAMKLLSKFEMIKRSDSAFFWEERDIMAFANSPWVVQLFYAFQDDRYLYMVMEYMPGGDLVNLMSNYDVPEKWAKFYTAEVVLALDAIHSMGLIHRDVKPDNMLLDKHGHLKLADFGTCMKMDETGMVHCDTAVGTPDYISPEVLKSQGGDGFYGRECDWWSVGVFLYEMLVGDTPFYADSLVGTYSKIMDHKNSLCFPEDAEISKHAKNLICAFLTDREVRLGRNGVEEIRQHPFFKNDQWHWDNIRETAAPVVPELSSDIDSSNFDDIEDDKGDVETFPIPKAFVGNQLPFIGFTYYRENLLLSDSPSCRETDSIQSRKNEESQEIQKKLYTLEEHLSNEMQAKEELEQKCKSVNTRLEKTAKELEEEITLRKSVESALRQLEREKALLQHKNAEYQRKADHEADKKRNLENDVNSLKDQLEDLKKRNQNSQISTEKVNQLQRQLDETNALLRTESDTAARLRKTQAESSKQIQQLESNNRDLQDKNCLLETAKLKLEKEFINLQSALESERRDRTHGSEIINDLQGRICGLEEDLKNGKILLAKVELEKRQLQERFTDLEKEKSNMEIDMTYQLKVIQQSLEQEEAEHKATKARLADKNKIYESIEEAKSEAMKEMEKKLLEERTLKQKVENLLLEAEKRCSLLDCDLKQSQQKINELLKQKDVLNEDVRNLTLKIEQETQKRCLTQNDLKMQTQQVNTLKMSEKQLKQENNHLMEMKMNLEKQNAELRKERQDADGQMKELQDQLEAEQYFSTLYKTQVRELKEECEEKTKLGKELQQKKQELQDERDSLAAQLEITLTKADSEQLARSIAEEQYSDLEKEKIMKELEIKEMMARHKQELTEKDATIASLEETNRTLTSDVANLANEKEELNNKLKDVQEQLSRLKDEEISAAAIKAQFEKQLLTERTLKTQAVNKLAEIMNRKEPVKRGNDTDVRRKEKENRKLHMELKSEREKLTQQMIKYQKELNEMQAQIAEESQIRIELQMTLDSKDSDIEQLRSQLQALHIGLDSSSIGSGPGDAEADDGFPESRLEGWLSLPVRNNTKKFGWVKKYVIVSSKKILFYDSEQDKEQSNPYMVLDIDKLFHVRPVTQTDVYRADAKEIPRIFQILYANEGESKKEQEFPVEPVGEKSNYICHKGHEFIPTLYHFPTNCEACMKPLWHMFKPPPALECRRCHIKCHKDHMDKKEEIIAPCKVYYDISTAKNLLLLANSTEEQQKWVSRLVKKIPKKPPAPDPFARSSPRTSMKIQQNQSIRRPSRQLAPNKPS

IC50 [nM]	SMILES
20.1 to 200	COc1cccc(C(C)n2ccn(-c3ccc(-c4cn[nH]c4)c(C)n3)c2=O)c1 (single isomer, unassigned) [Example 189, 1-(1-(3-methoxy-phenyl)-ethyl)-3-(6-methyl-5-(1H-pyrazol-4-yl)pyridin-2-yl)-1H-imidazol-2(3H)-one]
200 to 2000	COc1cccc(C(C)N2CCN(c3ccc(-c4cn[nH]c4)c(C)c3)C2=O)c1 (single isomer, unassigned) [Example 192, 1-(1-(3-methoxy-phenyl)-ethyl)-3-(3-methyl-4-(1H-pyrazol-4-yl)phenyl) imidazolidin-2-one]
2.1 to 20	COc1cccc(C(C)N2CCN(c3ccc(-c4cn[nH]c4)c(C)c3)C2=O)c1 (single isomer, unassigned) [Example 193, 1-(1-(3-methoxy-phenyl)-ethyl)-3-(3-methyl-4-(1H-pyrazol-4-yl)phenyl) imidazolidin-2-one]
200 to 2000	CC(c1cccc(OCC2CC2)c1)N1CCN(c2ccc(-c3cn[nH]c3)cc2)C1=O (single isomer, unassigned) [Example 195, 1-(4-(1H-pyrazol-4-yl)-phenyl)-3-(1-(3-(cyclo-propyl-methoxy)-phenyl)-ethyl)-imidazolidin-2-one]
2.1 to 20	CC(c1cccc(OCC2CC2)c1)N1CCN(c2ccc(-c3cn[nH]c3)cc2)C1=O (single isomer, unassigned) [Example 196, 1-(4-(1H-pyrazol-4-yl)-phenyl)-3-(1-(3-(cyclo-propyl-methoxy)-phenyl)-ethyl)-imidazolidin-2-one]
< 2	COc1cc(F)cc(C(C)N2CCN(c3ccc(-c4cn[nH]c4)cc3)C2=O)c1 (single isomer, unassigned) [Example 197, 1-(4-(1H-pyrazol-4-yl)-phenyl)-3-(1-(3-fluoro-5-methoxy-phenyl)ethyl) imidazolidin-2-one]
200 to 2000	COc1cc(F)cc(C(C)N2CCN(c3ccc(-c4cn[nH]c4)cc3)C2=O)c1 (single isomer, unassigned) [Example 198, 1-(4-(1H-pyrazol-4-yl)-phenyl)-3-(1-(3-fluoro-5-methoxy-phenyl)ethyl) imidazolidin-2-one]
20.1 to 200	Cc1nc(N2CCN(C(C)c3cccc(OCC4CC4)c3)C2=O)ccc1-c1cn[nH]c1 (single isomer, unassigned) [Example 204, 1-(1-(3-(cyclopropyl-methoxy)-phenyl)-ethyl)-3-(6-methyl-5-(1H-pyrazol-4-yl)pyridin-2-yl)-imidazolidin-2-one]
< 2	COc1cc(F)cc(C(C)N2CCN(c3ccc(-c4cn[nH]c4)c(C)n3)C2=O)c1 (single isomer, unassigned) [Example 206, 1-(1-(3-fluoro-5-methoxy-phenyl)-ethyl)-3-(6-methyl-5-(1H-pyrazol-4-yl)pyridin-2-yl)-imidazolidin-2-one]
200 to 2000	COc1cc(F)cc(C(C)N2CCN(c3ccc(-c4cn[nH]c4)c(C)n3)C2=O)c1 (single isomer, unassigned) [Example 207, 1-(1-(3-fluoro-5-methoxyphenyl)ethyl)-3-(6-methyl-5-(1H-pyrazol-4-yl)pyridin-2-yl)imidazolidin-2-one]
200 to 2000	COc1cc(C(C)N2CCN(c3ccc(-c4cn[nH]c4)c(C)n3)C2=O)ccc1F (single isomer, unassigned) [Example 208, 1-(1-(4-fluoro-3-methoxyphenyl)ethyl)-3-(6-methyl-5-(1H-pyrazol-4-yl)pyridin-2-yl)imidazolidin-2-one]
2.1 to 20	COc1cc(C(C)N2CCN(c3ccc(-c4cn[nH]c4)c(C)n3)C2=O)ccc1F (single isomer, unassigned) [Example 209, 1-(1-(4-fluoro-3-methoxyphenyl)ethyl)-3-(6-methyl-5-(1H-pyrazol-4-yl)pyridin-2-yl)imidazolidin-2-one]
2.1 to 20	COc1nc(N2CCN(C(C)c3cccc(OCC4CC4)c3)C2=O)ccc1-c1cn[nH]c1 (single isomer, unassigned) [Example 212, 1-(1-(3-(cyclopropylmethoxy)phenyl)ethyl)-3-(6-methoxy-5-(1H-pyrazol-4-yl)pyridin-2-yl)imidazolidin-2-one]
200 to 2000	COc1nc(N2CCN(C(C)c3cccc(OCC4CC4)c3)C2=O)ccc1-c1cn[nH]c1 (single isomer, unassigned) [Example 213, 1-(1-(3-(cyclopropylmethoxy)phenyl)ethyl)-3-(6-methoxy-5-(1H-pyrazol-4-yl)pyridin-2-yl)imidazolidin-2-one]
< 2	COc1cccc(C(C)N2CCN(c3ccc(-c4cn[nH]c4)c(OC)n3)C2=O)c1 (single isomer, unassigned) [Example 219, 1-(6-methoxy-5-(1H-pyrazol-4-yl)pyridin-2-yl)-3-(1-(3-methoxyphenyl)ethyl)imidazolidin-2-one]
20.1 to 200	COc1cccc(C(C)N2CCN(c3ccc(-c4cn[nH]c4)c(OC)n3)C2=O)c1 (single isomer, unassigned) [Example 220, 1-(6-methoxy-5-(1H-pyrazol-4-yl)pyridin-2-yl)-3-(1-(3-methoxyphenyl)ethyl)imidazolidin-2-one]
< 2	COc1cc(F)cc(C(C)N2CCN(c3ccc(-c4cn[nH]c4)c(OC)n3)C2=O)c1 (single isomer, unassigned) [Example 228, 1-(1-(3-fluoro-5-methoxyphenyl)ethyl)-3-(6-methoxy-5-(1H-pyrazol-4-yl)pyridin-2-yl)imidazolidin-2-one]
2.1 to 20	COc1cc(F)cc(C(C)N2CCN(c3ccc(-c4cn[nH]c4)c(OC)n3)C2=O)c1 (single isomer, unassigned) [Example 229, 1-(1-(3-fluoro-5-methoxyphenyl)ethyl)-3-(6-methoxy-5-(1H-pyrazol-4-yl)pyridin-2-yl)imidazolidin-2-one]
< 2	COc1cc(C(C)N2CCN(c3ccc(-c4cn[nH]c4)c(OC)n3)C2=O)ccc1F (single isomer, unassigned) [Example 230, 1-(1-(4-fluoro-3-methoxyphenyl)ethyl)-3-(6-methoxy-5-(1H-pyrazol-4-yl)pyridin-2-yl)imidazolidin-2-one]
20.1 to 200	COc1cc(C(C)N2CCN(c3ccc(-c4cn[nH]c4)c(OC)n3)C2=O)ccc1F (single isomer, unassigned) [Example 231, 1-(1-(4-fluoro-3-methoxyphenyl)ethyl)-3-(6-methoxy-5-(1H-pyrazol-4-yl)pyridin-2-yl)imidazolidin-2-one]
20.1 to 200	CCc1nc(N2CCN(C(C)c3cccc(OCC4CC4)c3)C2=O)ccc1-c1cn[nH]c1 (single isomer, unassigned) [Example 265, 1-(1-(3-(cyclopropylmethoxy)phenyl)ethyl)-3-(6-ethyl-5-(1H-pyrazol-4-yl)pyridin-2-yl)imidazolidin-2-one]
2.1 to 20	CCOc1cccc(C(C)N2CCN(c3ccc(-c4cn[nH]c4)c(CC)n3)C2=O)c1 (single isomer, unassigned) [Example 266, 1-(1-(3-ethoxyphenyl)ethyl)-3-(6-ethyl-5-(1H-pyrazol-4-yl)pyridin-2-yl)imidazolidin-2-one]
200 to 2000	CCOc1cccc(C(C)N2CCN(c3ccc(-c4cn[nH]c4)c(CC)n3)C2=O)c1 (single isomer, unassigned) [Example 267, 1-(1-(3-ethoxyphenyl)ethyl)-3-(6-ethyl-5-(1H-pyrazol-4-yl)pyridin-2-yl)imidazolidin-2-one]
< 2	CCc1nc(N2CCN(C(C)c3cc(F)cc(OC)c3)C2=O)ccc1-c1cn[nH]c1 (single isomer, unassigned) [Example 268, 1-(6-ethyl-5-(1H-pyrazol-4-yl)pyridin-2-yl)-3-(1-(3-fluoro-5-methoxyphenyl)ethyl)imidazolidin-2-one]
20.1 to 200	CCc1nc(N2CCN(C(C)c3cc(F)cc(OC)c3)C2=O)ccc1-c1cn[nH]c1 (single isomer, unassigned) [Example 269, 1-(6-ethyl-5-(1H-pyrazol-4-yl)pyridin-2-yl)-3-(1-(3-fluoro-5-methoxyphenyl)ethyl)imidazolidin-2-one]
2.1 to 20	CCc1nc(N2CCN(C(C)c3ccc(F)c(OC)c3)C2=O)ccc1-c1cn[nH]c1 (single isomer, unassigned) [Example 270, 1-(6-ethyl-5-(1H-pyrazol-4-yl)pyridin-2-yl)-3-(1-(4-fluoro-3-methoxyphenyl)ethyl)imidazolidin-2-one]
200 to 2000	CCc1nc(N2CCN(C(C)c3ccc(F)c(OC)c3)C2=O)ccc1-c1cn[nH]c1 (single isomer, unassigned) [Example 271, 1-(6-ethyl-5-(1H-pyrazol-4-yl)pyridin-2-yl)-3-(1-(4-fluoro-3-methoxyphenyl)ethyl)imidazolidin-2-one]
20.1 to 200	COc1cccc(C(C)(CO)N2CCN(c3ccc(-c4cn[nH]c4)cc3)C2=O)c1 (single isomer, unassigned) [Example 286, 1-(4-(1H-Pyrazol-4-yl)phenyl)-3-(1-hydroxy-2-(3-methoxyphenyl)propan-2-yl)imidazolidin-2-one]
20.1 to 200	COc1cccc(C(C)(CO)N2CCN(c3ccc(-c4cn[nH]c4)cc3)C2=O)c1 (single isomer, unassigned) [Example 287, 1-(4-(1H-Pyrazol-4-yl)phenyl)-3-(1-hydroxy-2-(3-methoxyphenyl)propan-2-yl)imidazolidin-2-one]
200 to 2000	COc1cccc(C(C(=O)O)N2CCN(c3ccc(-c4cn[nH]c4)cc3)C2=O)c1 (single isomer, unassigned) [Example 288, 2-(3-(4-(1H-Pyrazol-4-yl)phenyl)-2-oxoimidazolidin-1-yl)-2-(3-methoxyphenyl)acetic Acid]
